Reference: US20020164755A1, “Stable esterase, a process for the extraction thereof, and use thereof for cleaving acyclic monoterpenyl esters into their monoterpenols” (Council of Scientific and Industrial Research, priority 2000, published 2002)
Where a name gives a salt, the structure may show the parent alone.

How the values were obtained:
[1] = tested on: esterase enzyme from palmarosa inflorescence; test: Hydrolysis of geranyl acetate and other acyclic monoterpenyl esters by crude enzymic preparation from palmarosa inflorescence, GLC monitoring; assay type: biochemical, Cymbopogon martinii; settings: for Hydrolysis by crude enzymic preparation (in words): crude enzymic preparation from palmarosa inflorescence; for % Geranyl acetate hydrolyzed: 10 μmol geranyl acetate, 1 mg protein, 30° C.
Protocol: The extraction medium for the esterase enzyme consisted of 0.1 M NaPi buffer (pH 6.5) containing 50 mM sodium metabisulphite, 10 mM β-mercaptoethanol, 10 mM ascrobic acid, 0.25 M sucrose and 1 mM EDTA-Na2. Tissue (palmarosa inflorescence) was homogenized in cold extraction medium (1 g tissue/3 ml) in the presence of 50% (w/w) insoluble PVPP (polyvinyl polypyrrolidone), which prevent enzymic browning of the homogenate. The slurry was squeezed through four layers of muslin cloth and centrifuged at 15,000×g for 60 min. Purified amberlite XAD-4 resin (50% of the tissue weight) was added to the supernatant and kept for 5 minutes at 4° C., to remove the endogenous terpenes of the tissue, which can produce a significant artefact in the determination of esterase enzyme activity. The slurry thus formed was filtered through muslin cloth and the clear supernatant obtained was used to determine the acyclic monoterpenyl esters cleaving esterase activity using geranyl acetate as a model substrate. This supernatant fraction was also used for ammonium sulphate fractionation of the esterase enzyme.
Preliminary enzyme assays were done to optimize the assay conditions, and linearity of the reaction rate with time as well as enzyme concentration. The terpenoid substrates were solubilized by its dispersion in the solution of Tween-20 (10 μg/μmol of the substrate). A gas liquid chromatographic (GLC) procedure has been developed to detect the acyclic monoterpenyl esters cleaving esterase activity. […] Saturating levels (10 μmol) of the substrate geranyl acetate and 0.5 to 1.0 mg of the enzyme protein were used in each assay.
(§1) The geranyl acetate cleaving esterase activity was determined by GLC monitoring of geraniol produced by the hydrolysis of geranyl acetate. The assay system consisted of 0.05M Tris-HCl buffer (pH 8.5), 5 mM MgCl2. 6H2O, 1 mM DTE, 2 mM geranyl acetate and enzyme extract (approximately 1 mg protein), in a total volume of 0.5 ml. The reaction mixture was incubated at 30° C. in a sealed capped tube for 3-4 hours. The geraniol produced and leftover geranyl acetate was then extracted with ether and subjected to GLC. The appearance of geraniol peak indicated the presence of geranyl acetate cleaving esterase activity (FIG. 1). A blank with the boiled enzyme was also run simultaneously.
(§2) The gas liquid chromatographic (GLC) analysis, for the determination of geraniol produced and leftover geranyl acetate, was performed using a Perkin Elmer (model 3920 B) apparatus equipped with FID (flame ionization detector) stainless steel column (2 m×3 mm i.d.) packed with 10% FFAP (free fatty acid phase) on chromosorb WAW (80-100 mesh). The operating conditions were: Column temperature isothermal at 165° C., injector and detector temperature 200° C. and 250° C. respectively. Nitrogen and hydrogen flow rate were a adjusted to 30 ml/min and 28 ml/min, respectively. The geraniol and geranyl acetate peaks were identified by coinjecting authentic standards and quantified using a Varian integrator (model 4400).
Time course experiment was performed to study the linearity of the hydrolysis of geranyl acetate during the incubation period using enzymic preparation from palmarosa inflorescence. A linear catalytic rate was found up to six hours of incubation at 30° C. Almost 75% of the geranyl acetate was hydrolyzed after 24 hours of incubation (Table 1, FIG. 2).

[2] = tested on: esterase enzyme from palmarosa inflorescence (60-80% ammonium sulphate precipitated fraction); test: Hydrolysis of mixture of acyclic monoterpenyl esters by 60-80% ammonium sulphate precipitated protein fraction; assay type: biochemical, Cymbopogon martinii; settings: 60-80% fraction, 1 mg protein; ester rich fraction from citronella java (geranyl acetate:geranyl formate:citronellyl acetate 60:18:21) as substrate
Protocol: as §1, §2
Monoterpenyl ester rich fraction from citronella java containing geranyl acetate, geranyl formate and citronellyl acetate in proportion (60:18:21) was used as substrate. […] Furthermore, crude esterase enzyme was also able to cleave these acyclic monoterpenyl esters but to a lesser extent.

Hydrolysis by crude enzymic preparation (in words) [1]	% esters hydrolyzed per 3 hours [2] [%]	% Geranyl acetate hydrolyzed ([1]; incubation time 2 hour) [%]	% Geranyl acetate hydrolyzed ([1]; incubation time 4 hour) [%]	% Geranyl acetate hydrolyzed ([1]; incubation time 6 hour) [%]	% Geranyl acetate hydrolyzed ([1]; incubation time 8 hour) [%]	% Geranyl acetate hydrolyzed ([1]; incubation time 10 hour) [%]	% Geranyl acetate hydrolyzed ([1]; incubation time 12 hour) [%]	SMILES
could also hydrolyze	6.78							CC(=O)OCCC(C)CCC=C(C)C (centres unmarked) [Citronellyl acetate, citronellyl acetate]
	19.23	8.2	22.3	32	35.7	47.1	53.2	CC(=O)OC/C=C(\C)CCC=C(C)C [geranyl acetate]
could also hydrolyze	4.86							CC(C)=CCC/C(C)=C/COC=O [Geranyl formate, geranyl formate]
